This is an account of results in paper PMC10646112, “Mechanistic insights into glycoside 3-oxidases involved in C-glycoside metabolism in soil microorganisms” (Nature Communications, 2023).

Assay [1] concerns the target T1, PsG3Ox (Pseudarthrobacter siccitolerans, UniProt A0A024H8G7). In words: inhibition of D-Glc oxidation, steady-state kinetics (Lineweaver-Burk, secondary plot of slopes). The format is biochemical. Also noted: gene ARTSIC4J27_4061.
Assay [2] has as its target T1, PsG3Ox. In words: tryptophan fluorescence quenching titration of apo-enzyme; crystal structure. The assay is classed as biochemical. Also noted: gene ARTSIC4J27_4061; Apo-PsG3Ox.

Usually Ki stands for a measure of affinity in units of concentration, obtained from inhibition or displacement. Low readings indicate a stronger hold on the target, high ones a looser hold on the target. The term Kd denotes a measure of binding affinity in units of concentration. A lower Kd goes with tighter binding.

T1 sequence (A0A024H8G7 1-519): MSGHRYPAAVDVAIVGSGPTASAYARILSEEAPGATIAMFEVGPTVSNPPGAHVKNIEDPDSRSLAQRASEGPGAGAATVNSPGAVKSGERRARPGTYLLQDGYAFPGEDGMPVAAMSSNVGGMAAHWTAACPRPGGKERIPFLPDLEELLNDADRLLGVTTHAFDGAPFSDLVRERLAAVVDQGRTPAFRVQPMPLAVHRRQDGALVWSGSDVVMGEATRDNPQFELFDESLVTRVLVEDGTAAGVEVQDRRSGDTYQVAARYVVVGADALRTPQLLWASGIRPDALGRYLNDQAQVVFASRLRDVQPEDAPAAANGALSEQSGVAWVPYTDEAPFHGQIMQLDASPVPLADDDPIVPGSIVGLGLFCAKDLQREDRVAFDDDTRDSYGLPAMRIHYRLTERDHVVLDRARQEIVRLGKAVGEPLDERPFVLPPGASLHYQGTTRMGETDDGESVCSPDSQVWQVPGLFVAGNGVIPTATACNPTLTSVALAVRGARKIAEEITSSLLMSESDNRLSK

As to `C[C@@H]1O[C@@H](OC[C@H]2O[C@@H](Oc3c(-c4ccc(O)c(O)c4)oc4cc(O)cc(O)c4c3=O)[C@H](O)[C@@H](O)[C@@H]2O)[C@H](O)[C@H](O)[C@H]1O` [rutin], at PsG3Ox [1], the Ki was found to be 100 µM.
Consider `Cc1cc2nc3c(=O)[nH]c(=O)nc-3n(C[C@H](O)[C@H](O)[C@H](O)COP(=O)(O)OP(=O)(O)OC[C@H]3O[C@@H](n4cnc5c(N)ncnc54)[C@H](O)[C@@H]3O)c2cc1C` [FAD], for which binding on PsG3Ox [2] was characterised by a dissociation constant (Kd) of 0.2 µM.
